Columns and labels:
[1] = Liquid; for thermal conductivity: 101.33 kPa, Laser flash apparatus; for Critical pressure / Critical temperature: Resistive pulse heating
[2] = molar heat capacity at constant pressure; conditions: 101.33 kPa, Liquid, DSC

CCCCCCCCCCCC(=O)OCC(COC(=O)CCCCCCCCCCC)OC(=O)CCCCCCCCCCC [1,2,3-propanetriyl tridodecanoate]
Conditions	molar heat capacity at constant pressure, [2] [J/K/mol]	thermal conductivity, [1] [W/m/K]
330 K	1316	0.164
335 K	1323	0.163
340 K	1331	0.162
345 K	1340	0.161
350 K	1350	0.161
355 K	1361	0.16
360 K	1372	0.16
365 K	1384	0.159
370 K	1396	0.159
375 K	1407	0.158
380 K	1418	0.158
385 K	1428	0.157
390 K	1438	0.156
395 K	1446	0.155
400 K	1453	0.154
405 K	1458	0.153
410 K	1461	0.151

[1]
Conditions	Critical pressure [kPa]	Critical temperature [K]
–	650	899

CCCCCCCC(=O)OCC(COC(=O)CCCCCCC)OC(=O)CCCCCCC [1,2,3-propanetriol trioctanoate]
Conditions	molar heat capacity at constant pressure, [2] [J/K/mol]	thermal conductivity, [1] [W/m/K]
315 K	913.3	0.152
320 K	921	0.152
325 K	928.5	0.151
330 K	935.9	0.151
335 K	943.1	0.151
340 K	950.2	0.15
345 K	957.1	0.15
350 K	964	0.15
355 K	970.7	0.149
360 K	977.4	0.149
365 K	984.1	0.148
370 K	990.7	0.148
375 K	997.2	0.147
380 K	1004	0.146
385 K	1010	0.146
390 K	1017	0.145
395 K	1024	0.145
400 K	1030	0.144
405 K	1037	0.144
410 K	1044	0.143
415 K	1051	0.142
420 K	1058	0.142
425 K	1065	0.141

[1]
Conditions	Critical pressure [kPa]	Critical temperature [K]
–	830	836

CCCCCCCCCC(=O)OCC(COC(=O)CCCCCCCCC)OC(=O)CCCCCCCCC [1,2,3-propanetriyl tridecanoate]
Conditions	molar heat capacity at constant pressure, [2] [J/K/mol]	thermal conductivity, [1] [W/m/K]
320 K	1093	0.153
325 K	1106	0.153
330 K	1117	0.153
335 K	1128	0.153
340 K	1139	0.153
345 K	1148	0.153
350 K	1157	0.152
355 K	1166	0.152
360 K	1174	0.151
365 K	1182	0.15
370 K	1189	0.15
375 K	1196	0.15
380 K	1203	0.149
385 K	1209	0.148
390 K	1216	0.147
395 K	1222	0.147
400 K	1228	0.146
405 K	1235	0.145
410 K	1241	0.144
415 K	1248	0.143

[1]
Conditions	Critical pressure [kPa]	Critical temperature [K]
–	750	864

CCCCCCCCCCCCCC(=O)OCC(COC(=O)CCCCCCCCCCCCC)OC(=O)CCCCCCCCCCCCC [1,2,3-propanetriyl tri(tetradecanoate)]
Conditions	molar heat capacity at constant pressure, [2] [J/K/mol]	thermal conductivity, [1] [W/m/K]
350 K	1547	0.171
355 K	1557	0.17
360 K	1568	0.17
365 K	1580	0.169
370 K	1592	0.169
375 K	1606	0.168
380 K	1619	0.168
385 K	1632	0.168
390 K	1645	0.167
395 K	1657	0.167
400 K	1668	0.166
405 K	1678	0.165
410 K	1686	0.164

[1]
Conditions	Critical pressure [kPa]	Critical temperature [K]
–	610	925

From the NIST ThermoML archive (doi:10.1016/j.jct.2017.07.006)
